# Assay results from patent US20110245242A1, “Heterocyclically Substituted Anilinopyrimides” (Bayer CropScience AG, priority 2008, published 2011).
# Experiments:
# [1] = log P by HPLC on reversed-phase columns (C 18), method [a], acidic range pH 2.3; assay type: physicochemical; conditions: for log p / log P (pH 2.3): pH 2.3; for chromatographic logP: pH 2.3, log P (pH 2.3)
# Experimental: The log P values were measured in accordance with EEC Directive 79/831 Annex V.A8 by HPLC (High Performance Liquid Chromatography) on reversed-phase columns (C 18) using the methods below: [a] The determination was carried out in the acidic range at pH 2.3 using the mobile phases 0.1% aqueous phosphoric acid and acetronitrile linear gradient from 10% acetonitrile to 95% acetronitrile.
# [2] = log P by LC-MS, method [b], acid range pH 2.7; assay type: physicochemical; conditions: pH 2.7
# Experimental: The log P values were measured in accordance with EEC Directive 79/831 Annex V.A8 by HPLC (High Performance Liquid Chromatography) on reversed-phase columns (C 18) using the methods below:
# [b] The LC-MS determination in the acid range was carried out at pH 2.7 using the mobile phases 0.1% aqueous formic acid and acetonitrile (contains 0.1% formic acid)
# linear gradient from 10% acetonitrile to 95% acetonitrile.
Compound,log p [1],chromatographic logP [1],other results
COCC(C)Nc1nc(Nc2ccc(N3CCCC3=O)cc2)ncc1Cl (stereo not shown) [Example 1],1.51[a];,–,log p [2]: 1.51[b]
CC1CCC(=O)N1c1cccc(Nc2ncc(Cl)c(NC3CC3)n2)c1 (stereo not shown) [Example 30],1.6[a];,–,log p [2]: 1.6[b]
CC(C)C1COC(=O)N1c1cccc(Nc2ncc(Cl)c(NC3CC3)n2)c1 (stereo not shown) [Example 39],2.13[a],–,–
CC(C)C1COC(=O)N1c1cccc(Nc2ncc(Br)c(NC3CC3)n2)c1 (stereo not shown) [Example 45],2.24[a],–,–
CC(C)C1COC(=O)N1c1cccc(Nc2ncc(Cl)c(NC3CCC3)n2)c1 (stereo not shown) [Example 46],2.41[a],–,–
CC(C)CC1COC(=O)N1c1cccc(Nc2ncc(Cl)c(NC3CC3)n2)c1 (stereo not shown) [Example 47],2.54[a],–,–
CC(C)CC1COC(=O)N1c1cccc(Nc2ncc(Br)c(NC3CC3)n2)c1 (stereo not shown) [Example 48],2.69[a],–,–
CC(C)CC1COC(=O)N1c1cccc(Nc2ncc(Cl)c(NC3CCC3)n2)c1 (stereo not shown) [Example 49],2.83[a],–,–
CC(C)CC1COC(=O)N1c1cccc(Nc2ncc(Br)c(NC3CCC3)n2)c1 (stereo not shown) [Example 50],3.05[a],–,–
O=C1CCCCCN1c1cccc(Nc2ncc(Br)c(NC3CC3)n2)c1 [Example 54],1.82[a],–,–
O=C1CCCCCN1c1cccc(Nc2ncc(Cl)c(NC3CC3)n2)c1 [Example 55],1.7[a],–,–
CC1COC(=O)N1c1cccc(Nc2ncc(Cl)c(NC3CCC3)n2)c1 (stereo not shown) [Example 57],1.81[a],–,–
O=C1CCCCN1c1cccc(Nc2ncc(F)c(NC3CCC3)n2)c1 [Example 58],1.29[a],–,–
O=C1CCC(CO)N1c1cccc(Nc2ncc(Cl)c(NC3CC3)n2)c1 (stereo not shown) [Example 86],0.98[a],–,–
O=C1CCC(c2ccccc2)N1c1cccc(Nc2ncc(Cl)c(NC3CC3)n2)c1 (stereo not shown) [Example 87],2.1[a],–,–
C[C@@H]1COC(=O)N1c1cccc(Nc2ncc(Cl)c(NC3CCC3)n2)c1 [Example 102],1.56[a],–,–
C[C@@H]1COC(=O)N1c1cccc(Nc2ncc(Cl)c(NC3CC3)n2)c1 [Example 103],1.8[a],–,–
CC(C)[C@H]1COC(=O)N1c1cccc(Nc2ncc(Cl)c(N(C)C3CC3)n2)c1 [Example 115],3.09[a],–,–
COCC(C)Nc1nc(Nc2cccc(N3C(=O)OCC3C)c2)ncc1Cl (stereo not shown) [Example 118],1.6[a];,–,log p [2]: 1.6[b]
C[C@@H]1CCN(c2cccc(Nc3ncc(Cl)c(NC4CC4)n3)c2)C1=O [Example 123],2.86[a];,–,log p [2]: 2.86[b]

Compound,log p [1],chromatographic logP [1],other results
CCC1=C(C)CN(c2cccc(Nc3ncc(Br)c(NC4CC4)n3)c2)C1=O [Example 232],2.42[a],–,–
"FC(F)CNc1nc(Cl)ncc1Cl [Example V-2, 2,5-Dichloro-N-(2,2-difluoroethyl)pyrimidin-4-amine]",–,1.96,–
"COCC(C)Nc1nc(Cl)ncc1C(F)(F)F (stereo not shown) [Example V-3, 2-Chloro-N-(3-methoxypropan-2-yl)-5-trifluoromethylpyrimidin-4-amine]",–,2.75,–
"FC(F)CNc1nc(Cl)ncc1Cl [Example V-4, 2,5-Dichloro-N-(2,2-difluoroethyl)pyrimidin-4-amine]",–,–,log P (pH 2.3) [1]: 1.96
"FC(F)(F)CNc1nc(Cl)ncc1Cl [Example V-5, 2,5-Dichloro-N-(2,2,2-trifluoroethyl)pyrimidin-4-amine]",–,2.26,–
"CC1CC(Nc2nc(Cl)ncc2Br)C1 (stereo not shown) [Example V-6, 5-Bromo-2-chloro-N-(3-methylcyclobutyl)pyrimidin-4-amine]",–,3.47,–
"CN(c1nc(Cl)ncc1Cl)C1CC1 [Example V-26, 2,5-Dichloro-N-methyl-N-cyclopropylpyrimidin-4-amine]",–,2.82,–
"CC1(C)CC1Nc1nc(Cl)ncc1Cl (stereo not shown) [Example V-27, 2,5-Dichloro-N-(2,2-dimethylcyclopropyl)pyrimidin-4-amine]",–,3.04,–
"Fc1cnc(Cl)nc1NC1CCC1 [Example V-28, 5-Fluoro-2-chloro-N-cyclobutylpyrimidin-4-amine]",–,2.17,–
"Clc1ncc(Cl)c(NC2COC2)n1 [Example V-29, 2,5-Dichloro-N-(oxetan-3-yl)pyrimidin-4-amine]",–,1.31,–
"COCC(C)Nc1nc(Cl)ncc1C#N (stereo not shown) [Example V-30, 2-Chloro-4-[(1-methoxypropan-2-yl)-amino]pyrimidine-5-carbonitrile]",–,1.83,–
"Clc1ncc(Cl)c(N2CCSCC2)n1 [Example V-32, 4-(2,5-Dichloropyrimidin-4-yl)thiomorpholine]",–,2.84,–
"Clc1ncc(Cl)c(N2CCOCC2)n1 [Example V-33, 4-(2,5-Dichloropyrimidin-4-yl)morpholine]",–,1.99,–
"Clc1ncc(Cl)c(N2CCCC2)n1 [Example V-34, 2,5-Dichloro-4-(pyrrolidin-1-yl)pyrimidine]",–,2.78,–
"Clc1ncc(Cl)c(N2CCC2)n1 [Example V-35, 4-(Azetidin-1-yl)-2,5-dichloropyrimidine]",–,2.11,–
"Clc1ncc(Cl)c(N2CCCCC2)n1 [Example V-36, 2,5-Dichloro-4-(piperidin-1-yl)pyrimidine]",–,3.52,–
"CC(Nc1nc(Cl)ncc1Cl)C(F)(F)F (stereo not shown) [Example V-37, 2,5-Dichloro-N-(1,1,1-trifluoropropan-2-yl)pyrimidin-4-amine]",–,2.66,–
"CCCNc1nc(Cl)ncc1Cl [Example V-38, 2,5-Dichloro-N-propylpyrimidin-4-amine]",2.42,–,–
"CC1CC(Nc2nc(Cl)ncc2Cl)C1 (stereo not shown) [Example V-39, 2,5-Dichloro-N-(3-methylcyclobutyl)pyrimidin-4-amine]",–,3.2,–
"CC1CC1Nc1nc(Cl)ncc1Cl (stereo not shown) [Example V-40, 2,5-Dichloro-N-(2-methylcyclopropyl)pyrimidin-4-amine]",–,2.53,–

Compound,log p [1],chromatographic logP [1],other results
"CC1CC1Nc1nc(Cl)ncc1Br (stereo not shown) [Example V-41, 5-Bromo-2-chloro-N-(2-methylcyclopropyl)pyrimidin-4-amine]",–,2.68,–
"CC1CC1Nc1nc(Cl)ncc1C(F)(F)F (stereo not shown) [Example V-42, 2-Chloro-N-(2-methylcyclopropyl)-5-(trifluoromethyl)pyrimidin-4-amine]",–,3.02,–
"CCC1CC1Nc1nc(Cl)ncc1Cl (stereo not shown) [Example V-43, 2,5-Dichloro-N-(2-ethylcyclopropyl)pyrimidin-4-amine]",–,3.1,–
CCC(CC(C)C(=O)OC)[N+](=O)[O-] (stereo not shown) [Methyl 2-methyl-4-nitrohexanoate],–,2.23,–
"O=C1CCCN1c1cccc(Nc2ncc(C(F)(F)F)c(Cl)n2)c1 [VI-1, 1-(3-{[4-Chloro-5-(trifluoromethyl)pyrimidin-2-yl]amino}phenyl)pyrrolidin-2-one]",–,2.98,–
"O=C1CCCN1c1cc(Nc2ncc(C(F)(F)F)c(Cl)n2)ccc1F [VI-2, 1-(5-{[4-Chloro-5-(trifluoromethyl)pyrimidin-2-yl]amino}-2-fluorophenyl)pyrrolidin-2-one]",–,2.84,–
"O=C1CCCN1c1cccc(Nc2ncc(C(F)F)c(F)n2)c1 [VI-3, 1-(3-{[5-(Difluoromethyl)-4-fluoropyrimidin-2-yl]amino}phenyl)pyrrolidin-2-one]",–,2.28,–
"O=C1OCCN1c1ccc(Nc2ncc(C(F)(F)F)c(Cl)n2)cc1 [VI-4, 3-(4-{[4-Chloro-5-(trifluoromethyl)pyrimidin-2-yl]amino}phenyl)-1,3-oxazolidin-2-one]",–,2.74,log P (pH 2.3) [1]: 2.76
"Brc1cnc(Nc2cccc(I)c2)nc1NC1CC1 [VII-2, 5-Bromo-N^4-cyclopropyl-N^2-(3-iodophenyl)pyrimidine-2,4-diamine]",–,3.34,–
"FC(F)(F)Oc1ccc(Nc2ncc(Cl)c(NC3CC3)n2)cc1Br [VII-3, 5-Chloro-N^2-[3-bromo-4-(trifluoromethoxy)phenyl]-N^4-cyclopropylpyrimidine-2,4-diamine]",–,3.99,–
"Cc1ccc(Nc2ncc(Cl)c(NC3CC3)n2)cc1Br [VII-4, 5-Chloro-N^2-[3-bromo-4-(methyl)phenyl]-N^4-cyclopropylpyrimidine-2,4-diamine]",–,2.91,–
"Clc1cnc(Nc2cccc(Br)c2)nc1NC1CC1 [VII-5, N^2-(3-Bromophenyl)-5-chloro-N^4-cyclopropylpyrimidine-2,4-diamine]",–,2.91,–
"Clc1ccc(Nc2ncc(Cl)c(NC3CC3)n2)cc1Br [VII-6, N^2-(3-Bromo-4-chlorophenyl)-5-chloro-N^4-cyclopropylpyrimidine-2,4-diamine]",–,3.55,–
"FC(F)(F)c1cc(Br)cc(Nc2ncc(Cl)c(NC3CC3)n2)c1 [VII-7, N^2-[3-Bromo-5-(trifluoromethyl)phenyl]-5-chloro-N^4-cyclopropylpyrimidine-2,4-diamine]",–,4.6,–
"Clc1cnc(Nc2ccc(Br)cc2)nc1NC1CC1 [VII-8, N^2-(4-Bromophenyl)-5-chloro-N^4-cyclopropylpyrimidine-2,4-diamine]",–,2.55,–
"Brc1ccc(Nc2ncc(Br)c(NCC3CC3)n2)cc1 [VII-9, 5-Bromo-N^2-(4-bromophenyl)-N^4-(cyclopropylmethyl)pyrimidine-2,4-diamine]",–,2.84,–
"Brc1ccc(Nc2ncc(Br)c(NC3CCC3)n2)cc1 [VII-10, 5-Bromo-N^2-(4-bromophenyl)-N^4-cyclobutylpyrimidine-2,4-diamine]",–,3.18,–
"Brc1ccc(Nc2ncc(Br)c(NC3CC3)n2)cc1 [VII-11, 5-Bromo-N^2-(4-bromophenyl)-N^4-cyclopropylpyrimidine-2,4-diamine]",–,2.7,–
"Clc1cnc(Nc2ccc(I)cc2)nc1NC1CCC1 [VII-12, 5-Chloro-N^4-cyclobutyl-N^2-(4-iodophenyl)pyrimidine-2,4-diamine]",–,3.49,–
